Reference: publication PMC9697131, “Agomelatine, Ketamine and Vortioxetine Attenuate Energy Cell Metabolism—In Vitro Study” (International Journal of Molecular Sciences, 2022)

System: complex II+III-linked ATP kinetics, pig brain mitochondria
Test: Complex II+III-linked ATP kinetics, bioluminescence
Type: biochemical
Conditions: 10 μM drug; mean ± SD
Description: Pig brains were obtained from a slaughterhouse. Mitochondrial fraction isolation and purification from brain cortex were performed as previously described. Briefly, grey matter from pig brains was homogenized and crude mitochondrial fraction was isolated and then centrifuged on the sucrose gradient to obtain purified mitochondrial fraction. The freshly purified mitochondria were kept on ice until the assays were performed and were used for measurements of the mitochondrial oxygen consumption rate, measurements of ATP and ROS formation. Frozen mitochondria (stored at −70 °C) were used for the following enzyme activity measurements: ETC complexes, citrate synthase (CS) and malate dehydrogenase (MDH) activity.
The following protocol has been modified and optimized. An ATP Bioluminescence Assay Kit CLS II was used to measure ATP content and kinetics. The luminescence was measured using FluoroMax-3 (Jobin Yvon, Edison, NJ, USA) at 562 nm. Standard curve for ATP determination was prepared from ATP standard in the range from 0 to 600 nM. […]
For ATP kinetics determination MiR05 buffer, mitochondria and drugs were incubated on ice for 20 min and another 10 min at room temperature. Background luminescence was measured. Consequently, the same substrate mixture as mentioned above, and 230 µL of luciferase reagent were added and ATP kinetics was determined by measuring the luminescence for 4 min. […]

## CNC1(c2ccccc2Cl)CCCCC1=O (stereo not shown) [ketamine]
  complex II+III-linked ATP kinetics (relative to control = 100%): 84.9 ± 5.9%
